In ChEMBL document CHEMBL4813974 (Eur J Med Chem, 2021) one finds inhibition data, which are given here for 52 molecules.

For experiment [1], the target named is T1, Acid ceramidase (Homo sapiens) (UniProt Q13510).
T1 sequence (whole entry): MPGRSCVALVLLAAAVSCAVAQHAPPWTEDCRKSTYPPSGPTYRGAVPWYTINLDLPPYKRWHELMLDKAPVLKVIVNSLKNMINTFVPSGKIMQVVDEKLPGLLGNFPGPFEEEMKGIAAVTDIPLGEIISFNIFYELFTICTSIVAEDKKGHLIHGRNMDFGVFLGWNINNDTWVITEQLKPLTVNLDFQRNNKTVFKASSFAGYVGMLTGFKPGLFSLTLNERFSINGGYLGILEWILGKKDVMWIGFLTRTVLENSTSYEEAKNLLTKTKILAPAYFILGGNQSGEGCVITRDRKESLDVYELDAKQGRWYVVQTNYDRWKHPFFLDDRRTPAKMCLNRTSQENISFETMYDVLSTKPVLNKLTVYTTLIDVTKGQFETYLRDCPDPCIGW
Briefly: Inhibition of human ASAH1 stably over expressed in human A-375 cell lysate using RBM14C12 fluorogenic substrate measured at 2:1 compound to substrate molar ratio at pH 4.5 by fluorescence spectrophotometry. It counts as subcellular.

Experiment [2] has as its target T2, Alkaline ceramidase 3 (Mus musculus) (UniProt Q9D099).
T2 sequence (whole entry): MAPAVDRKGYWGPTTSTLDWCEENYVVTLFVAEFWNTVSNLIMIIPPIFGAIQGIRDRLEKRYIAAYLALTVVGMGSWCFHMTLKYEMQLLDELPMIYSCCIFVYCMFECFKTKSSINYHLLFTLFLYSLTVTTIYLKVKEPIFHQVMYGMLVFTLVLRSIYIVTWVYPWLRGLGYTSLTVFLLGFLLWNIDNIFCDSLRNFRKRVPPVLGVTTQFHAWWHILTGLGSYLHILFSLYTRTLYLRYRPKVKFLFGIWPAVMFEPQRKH
Nature of the experiment: Inhibition of ACER3 in ASAH2-null mouse embryonic fibroblast lysate using RBM14C16 fluorogenic substrate measured at 1:1 substrate to compound molar ratio at pH 9 in presence of Ca2+ by fluorescence spectrophotometry. Particulars: MEF.

The target of another experiment is Neutral ceramidase (Homo sapiens, UniProt Q9NR71). Nature of the experiment: Inhibition of human ASAH2 stably over expressed in human A-375 cell lysate using RBM14C24 fluorogenic substrate measured at 20 uM at pH 7.5 by fluorescence spectrophotometry. In kind it is subcellular.
Sequence of Neutral ceramidase (Q9NR71 whole entry): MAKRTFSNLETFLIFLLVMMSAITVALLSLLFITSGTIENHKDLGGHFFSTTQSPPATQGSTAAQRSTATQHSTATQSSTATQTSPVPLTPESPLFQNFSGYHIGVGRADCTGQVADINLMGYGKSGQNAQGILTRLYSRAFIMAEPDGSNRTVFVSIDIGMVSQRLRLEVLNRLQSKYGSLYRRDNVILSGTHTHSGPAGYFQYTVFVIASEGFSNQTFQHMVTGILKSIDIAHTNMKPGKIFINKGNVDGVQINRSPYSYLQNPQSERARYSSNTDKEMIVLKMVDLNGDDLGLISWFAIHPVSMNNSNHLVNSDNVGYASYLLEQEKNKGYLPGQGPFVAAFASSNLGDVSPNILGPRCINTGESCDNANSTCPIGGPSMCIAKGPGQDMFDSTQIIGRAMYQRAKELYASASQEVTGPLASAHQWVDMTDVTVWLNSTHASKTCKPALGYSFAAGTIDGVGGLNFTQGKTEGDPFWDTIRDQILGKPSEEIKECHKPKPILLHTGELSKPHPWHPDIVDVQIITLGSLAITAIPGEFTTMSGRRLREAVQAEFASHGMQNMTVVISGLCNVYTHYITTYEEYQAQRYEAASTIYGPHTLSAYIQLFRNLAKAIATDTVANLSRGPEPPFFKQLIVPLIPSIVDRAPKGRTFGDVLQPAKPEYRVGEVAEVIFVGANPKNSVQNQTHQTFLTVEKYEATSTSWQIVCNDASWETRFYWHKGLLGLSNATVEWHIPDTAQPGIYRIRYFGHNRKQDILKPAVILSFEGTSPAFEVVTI
Experiment [3] deals with T1, Acid ceramidase (Homo sapiens). Briefly: Inhibition of human ASAH1 stably over expressed in human A-375 cell lysate using RBM14C12 fluorogenic substrate measured at 1:1 compound to substrate molar ratio at pH 4.5 by fluorescence spectrophotometry. In kind it is subcellular.

The source made the active and inactive calls. The rule behind the calls is not given here.

`CCCCCCCCCCCCCC[C@@H](O)[C@@H](C)N`: the inhibition entry in experiment [1] and in experiment [2] was “inactive” each time.

As for `CCCCCCCCCCCCCC[C@@H](O)[C@@H](C)NC(=O)CBr`, the inhibition entry in experiment [1] and in experiment [2] was “inactive” throughout.

For `CCCCCCCCCCCCCC[C@@H](O)[C@H](C)NC(=O)CBr`, the inhibition entry in experiment [1] and in experiment [2] was “inactive” in each case.

Turning to `CCCCCCCCCCCC/C=C/[C@@H](O)[C@@H](C)NC(=O)c1ccc(CCC)cc1`, the inhibition entry (on Neutral ceramidase; in experiment [3]) was “inactive” throughout.

On to `CCCCCCCCCCCC/C=C/[C@@H](O)[C@@H](C)NC(=O)c1ccc(CCCCCC)cc1`, for which the inhibition entry (on Neutral ceramidase; in experiment [3]) was “inactive” throughout.

For `CCCCCCCCCCCC/C=C/[C@@H](O)[C@@H](C)NC(=O)c1ccc(OCCCCCC)cc1`, the inhibition result (at Neutral ceramidase; in experiment [3]) was “inactive” throughout.

With `CCCCCCCCCCCC/C=C/[C@@H](O)[C@H](C)NC(=O)CCCCCCC`, the inhibition result in experiment [1] and in experiment [2] was “inactive” in each case.

On to `CCCCCCCCCCCC/C=C/[C@@H](O)[C@@H](C)NC(=O)C(C)(C)C`, for which the inhibition result in experiment [1] and in experiment [2] was “inactive” in each case.

As for `CCCCCCCCCCCCCC[C@@H](O)[C@H](C)NC(=O)C(C)(C)C`, the inhibition result in experiment [1] and in experiment [2] was “inactive” in each case.

As for `CCCCCCCCCCCC/C=C/[C@@H](O)[C@@H](C)NC(=O)c1ccc(CC)cc1`, the inhibition entry (on Neutral ceramidase; in experiment [3]) was “inactive” in each case.

For the molecule `CCCCCCCCCCCC/C=C/[C@@H](O)[C@@H](C)NC(=O)c1ccc(C(C)(C)C)cc1`, the inhibition result (on Neutral ceramidase; in experiment [3]) was “inactive” throughout.

On to `CCCCCCCCCCCCCC[C@@H](O)[C@@H](C)NC(=O)C(C)(C)C`, for which the inhibition entry in experiment [1] and in experiment [2] was “inactive” each time.

For `CCCCCCCCCCCC/C=C/[C@H](O)[C@@H](C)NC(=O)CCCCCCC`, the inhibition result in experiment [1] and in experiment [2] was “inactive” in each case.

With `CCCCCCCCCCCC/C=C/[C@H](O)[C@H](C)NC(=O)C(C)(C)C`, the inhibition result in experiment [1] and in experiment [2] was “inactive” each time.

Consider `CCCCCCCCCCCC/C=C/[C@@H](O)[C@@H](C)NC(=O)c1ccc(OCCCCCCCOCOC)cc1`, for which the inhibition result (at Neutral ceramidase; in experiment [3]) was “inactive” in each case.

For `CCCCCCCCCCCCCC[C@H](O)[C@H](C)N`, the inhibition entry in experiment [1] and in experiment [2] was “inactive” each time.

As to `CCCCCCCCCCCCCC[C@@H](O)[C@H](C)N`, the inhibition result in experiment [1] and in experiment [2] was “inactive” each time.

Regarding `CCCCCCCCCCCC/C=C/[C@@H](O)[C@@H](C)NC(=O)c1ccccc1`, the inhibition result (on Neutral ceramidase; in experiment [3]) was “inactive” in each case.

Regarding `CCCCCCCCCCCCCC[C@@H](O)[C@@H](C)NC(=O)c1ccc(CCCCCCC)cc1`, the inhibition result in experiment [1] and in experiment [2] was “inactive” throughout.

On to `CCCCCCCCCCCC/C=C/[C@@H](O)[C@@H](C)NC(=O)c1ccc(OCCOCOC)cc1`, for which the inhibition entry (on Neutral ceramidase; in experiment [3]) was “inactive” in each case.

On to `CCCCCCCCCCCCCC[C@H](O)[C@@H](C)NC(=O)C(C)(C)C`, for which the inhibition result in experiment [1] and in experiment [2] was “inactive” in each case.

Take `CCCCCCCCCCCCCC[C@H](O)[C@@H](C)NC(=O)CCCCCCC`: the inhibition result in experiment [1] and in experiment [2] was “inactive” in each case.

With `CCCCCCCCCCCCCC[C@H](O)[C@@H](C)N`, the inhibition entry in experiment [1] and in experiment [2] was “inactive” throughout.

For `CCCCCCCCCCCC/C=C/[C@H](O)[C@H](C)NC(=O)c1ccc(CCCCCCC)cc1`, the inhibition entry in experiment [1] and in experiment [2] was “inactive” in each case.

With `CCCCCCCCCCCCCC[C@@H](O)[C@@H](C)NC(=O)CCCCCCC`, the inhibition entry in experiment [1] and in experiment [2] was “inactive” each time.

Consider `CCCCCCCCCCCC/C=C/[C@@H](O)[C@@H](C)NC(=O)c1ccc(OCOC)cc1`, for which the inhibition entry (on Neutral ceramidase; in experiment [3]) was “inactive” each time.

As to `CCCCCCCCCCCC/C=C/[C@@H](O)[C@H](C)NC(=O)C(C)(C)C`, the inhibition result in experiment [1] and in experiment [2] was “inactive” throughout.

Regarding `CCCCCCCCCCCCCC[C@H](O)[C@H](C)NC(=O)CCCCCCC`, the inhibition result in experiment [1] and in experiment [2] was “inactive” each time.

Regarding `CCCCCCCCCCCC/C=C/[C@@H](O)[C@@H](C)NC(=O)c1ccc(OCCCCC)cc1`, the inhibition entry (on Neutral ceramidase; in experiment [3]) was “inactive” in each case.

For `CCCCCCCCCCCCCC[C@H](O)[C@@H](C)NC(=O)c1ccc(CCCCCCC)cc1`, the inhibition result in experiment [1] and in experiment [2] was “inactive” throughout.

As for `CCCCCCCCCCCC/C=C/[C@H](O)[C@H](C)N`, the inhibition result in experiment [1] and in experiment [2] was “inactive” in each case.

On to `CCCCCCCCCCCC/C=C/[C@H](O)[C@@H](C)NC(=O)C(C)(C)C`, for which the inhibition entry in experiment [1] and in experiment [2] was “inactive” throughout.

As to `CCCCCCCCCCCCCC[C@@H](O)[C@H](C)NC(=O)CCCCCCC`, the inhibition entry in experiment [1] and in experiment [2] was “inactive” each time.

In the case of `CCCCCCCCCCCCCC[C@H](O)[C@H](C)NC(=O)c1ccc(CCCCCCC)cc1`, the inhibition result in experiment [1] and in experiment [2] was “inactive” each time.

As to `CCCCCCCCCCCC/C=C/[C@@H](O)[C@@H](C)NC(=O)c1ccc(OCCCCCCC)cc1`, the inhibition entry (on Neutral ceramidase; in experiment [3]) was “inactive” throughout.

For `CCCCCCCCCCCC/C=C/[C@@H](O)[C@@H](C)NC(=O)c1ccc(OCCCCCOCOC)cc1`, the inhibition result (at Neutral ceramidase; in experiment [3]) was “inactive” throughout.

For `CCCCCCCCCCCC/C=C/[C@@H](O)[C@@H](C)NC(=O)CBr`, the inhibition result in experiment [1] and in experiment [2] was “inactive” in each case.

With `CCCCCCCCCCCCCC[C@H](O)[C@@H](C)NC(=O)CBr`, the inhibition entry in experiment [1] and in experiment [2] was “inactive” each time.

In the case of `CCCCCCCCCCCC/C=C/[C@H](O)[C@H](C)NC(=O)CCCCCCC`, the inhibition entry in experiment [1] and in experiment [2] was “inactive” throughout.

Regarding `CCCCCCCCCCCC/C=C/[C@@H](O)[C@@H](C)N`, the inhibition entry in experiment [1] and in experiment [2] was “inactive” in each case.

As to `CCCCCCCCCCCC/C=C/[C@H](O)[C@H](C)NC(=O)CBr`, the inhibition entry in experiment [1] and in experiment [2] was “inactive” in each case.

As for `CCCCCCCCCCCC/C=C/[C@@H](O)[C@@H](C)NC(=O)c1ccc(CCCCC)cc1`, the inhibition result (on Neutral ceramidase; in experiment [3]) was “inactive” throughout.

`CCCCCCCCCCCCCC[C@H](O)[C@H](C)NC(=O)C(C)(C)C`: the inhibition result in experiment [1] and in experiment [2] was “inactive” each time.

Take `CCCCCCCCCCCCCC[C@H](O)[C@H](C)NC(=O)CBr`: the inhibition result in experiment [1] and in experiment [2] was “inactive” each time.

Regarding `CCCCCCCCCCCC/C=C/[C@@H](O)[C@H](C)NC(=O)c1ccc(CCCCCCC)cc1`, the inhibition entry in experiment [1] and in experiment [2] was “inactive” in each case.

In the case of `CCCCCCCCCCCC/C=C/[C@H](O)[C@@H](C)NC(=O)c1ccc(CCCCCCC)cc1`, the inhibition entry in experiment [1] and in experiment [2] was “inactive” each time.

Regarding `CCCCCCCCCCCC/C=C/[C@@H](O)[C@H](C)NC(=O)CBr`, the inhibition entry in experiment [1] and in experiment [2] was “inactive” throughout.

Turning to `CCCCCCCCCCCC/C=C/[C@H](O)[C@@H](C)NC(=O)CBr`, the inhibition entry in experiment [1] and in experiment [2] was “inactive” in each case.

On to `CCCCCCCCCCCCCC[C@@H](O)[C@H](C)NC(=O)c1ccc(CCCCCCC)cc1`, for which the inhibition entry in experiment [1] and in experiment [2] was “inactive” in each case.

As for `CCCCCCCCCCCC/C=C/[C@@H](O)[C@H](C)N`, the inhibition result in experiment [1] and in experiment [2] was “inactive” in each case.

Turning to `CCCCCCCCCCCC/C=C/[C@H](O)[C@@H](C)N`, the inhibition result in experiment [1] and in experiment [2] was “inactive” throughout.

`CCCCCCCCCCCC/C=C/[C@@H](O)[C@@H](C)NC(=O)c1ccc(OCCOCCOC)cc1`: the inhibition result (on Neutral ceramidase; in experiment [3]) was “inactive” throughout.
